Several values for one entry are separate records, joined by “and”; a condition that tells them apart may be missing. Equal entries are not always repeated.

This note sets out measurements from patent US20060167094A1, “Satiety agent” (priority 2005, published 2006).

The nature of data set [1]: Tolerability of intraduodenal fatty acid infusion (pilot study and randomized study). Format: in vivo, human. Here is the method: Fatty acid solutions were prepared using 5.3 g of commercially available food grade saturated free fatty acids, lauric (C12:0) and decanoic (C10:0) acid (Sigma-Aldrich; Milwaukee, Wis.). C12 was dissolved in 0.89 g NaOH (Sigma-Aldrich; St. Louis, Mo.) and distilled water to a total volume of 250 ml. C12 was maintained in solution by heating it to 37° C., with a resulting pH of 8.2. C10 was also dissolved in NaOH (1.21 g), and the pH of the C10 and control (distilled water) solutions was adjusted to 8.2 by the addition of NaOH. All solutions were prepared on the morning of the study and infused at 37° C. […] We chose to infuse the fatty acid and control solutions intraduodenally to ensure uniformity of doses across subjects and study days.
However, during the C12 infusion, the first subject tested reported severe nausea and only tolerated the infusion for 30 min. A second subject, who again reported severe nausea, tolerated the infusion for 60 min.

The nature of data set [2]: Antropyloroduodenal (APD) pressures by manometry during intraduodenal infusion. Format: in vivo, human. The source says: Subjects attended the laboratory at 0830 after fasting from 2200 the previous night from both solids and liquids. They were intubated with a 17-channel manometric catheter (Dentsleeve; Adelaide, South Australia, Australia) that was inserted through an anesthetized nostril and allowed to pass through the stomach and into the duodenum by peristalsis. The manometric catheter, which consisted of 16 sideholes spaced at 1.5-cm intervals, measures pressures in the antrum, pylorus, and duodenum. Six side holes (channels 1-6) were positioned in the antrum, a 4.5-cm sleeve sensor (channel 7), with two channels present on the back of the sleeve (channels 8 and 9), designed to measure pressure waves occurring over the entire pyloric region, were positioned across the pylorus, and seven channels were positioned in the duodenum (channels 10-16). An additional channel, used for intraduodenal infusions, was positioned 11.75 cm distal to the end of the sleeve sensor. The correct positioning of the catheter, so the sleeve sensor straddled the pylorus, was maintained by continuous measurement of the transmucosal potential difference (TMPD) between the most distal antral channel (channel 6; approximately −40 mV) and the most proximal duodenal channel (channel 10; ˜0 mV). For this purpose, an intravenous cannula filled with sterile saline was placed subcutaneously in the left forearm and used as a reference electrode. All manometric channels were perfused with degassed, distilled water except for the two TMPD channels, which were perfused with degassed 0.9% saline at 0.15 ml/min. An intravenous cannula was also placed into a right forearm vein for blood sampling to measure plasma CCK and GLP-1 concentrations.
Once the catheter was positioned correctly, fasting motility was monitored until the occurrence of phase III of the interdigestive migrating motor complex (MMC). Immediately after the cessation of phase III activity [at time t=−15 min], a baseline venous blood sample was taken, and a visual analog scale questionnaire (VAS) (see Measurements), assessing appetite-related sensations, was administered. At t=0 min (i.e., during phase I of the MMC), the duodenal infusion of 1) C12, 2) C10, or 3) control solution was commenced and continued for 90 min. APD pressures were monitored throughout the infusion period; blood samples were taken, and the VAS administered every 15 min from t=0 min until t=90 min. At t=90 min, the infusion was terminated, and the subject was immediately extubated and offered a cold buffet-style meal, the composition of which is provided in Table 1. The amount of food offered was in excess of what the subject was expected to consume. The subject was given 30 min (i.e., t=90 min to t=120 min) to consume the meal and instructed to eat until comfortably full. After ingestion of the meal, the subject was monitored for a further 30 min, a further VAS was completed, and blood samples were taken at t=120 and 150 min. The intravenous cannula was then removed, and the subject was allowed to leave the laboratory.
APD pressures. Manometric pressures were digitized, recorded on a computer-based system (PowerMac 7100/75, Apple Computers; Cupertino, Calif.) running commercially available software (HAD, Associate Prof. G S Hebbard, Melbourne, Australia) written in LabView 3.1.1 (National Instruments), and stored for subsequent analysis. APD pressures were analysed for 1) number and amplitude of isolated pyloric pressure waves (IPPWs) and pressure waves (PWs) in the antrum and duodenum and 2) number and length of PW sequences (PWSs) in the duodenum using custom-written software (Gastrointestinal Motility Unit; Utrecht, The Netherlands) modified to our requirements. […]

[3] abbreviates: 90 min infusion, compared with control.

Take `CCCCCCCCCCCC(=O)O` [C12, lauric acid]: the “time the infusion was tolerated” value is ~60 min in data set [1] (pilot study, 0.75 kcal/min (n=1)); ~60 min in data set [1] (pilot study, 1 kcal/min (n=1)); 30 min and 60 min in data set [1] (pilot study, 1.5 kcal/min, individual subjects); 30 min in data set [1] (randomized study, 0.375 kcal/min, one subject with severe nausea). Moreover, the “adverse effect limiting the infusion” value in data set [1] (pilot study, 1 kcal/min and 0.75 kcal/min) was “severe nausea and vomiting”; in data set [1] (pilot study, 1.5 kcal/min) it was “severe nausea”. For the same compound, the “basal pyloric pressure (tone)” value in data set [2] (setting [3]) was “increased basal pyloric pressure”. Besides, in data set [2] (setting [3]), the “number of antral PWs” value was “decreased the number of antral PWs compared with control”. For the same compound, the “number of duodenal PWs” value in data set [2] (setting [3]) is “decreased the number of duodenal PWs”. In addition, in data set [2] (C12: 0-15, 15-30 and 30-45 min, C10: 0-15 min), the “number of IPPWs compared with control” value was “increased the number of IPPWs”. Further, the “length of antegrade peristalsis in the duodenum” value in data set [2] (C12 infusion) was “did not abolish but did shorten”. In addition, the “onset of gastrointestinal effects” value in data set [2] (C12 infusion 0.375 kcal/min) is ~15 min. Besides, the “amplitude of IPPWs compared with control” value is listed as “increased the amplitude of IPPWs compared with control” in data set [2] (between 0-15 and 15-30 min); “decreased the amplitude of IPPWs” in data set [2] (between 60 and 75 min). In addition, the “number of IPPWs compared with C10” value in data set [2] (between 15-30 and 30-45 min) was “increased the number of IPPWs”. The “amplitude of IPPWs compared with C10” value in data set [2] (between 75 and 90 min) is listed as “decreased the amplitude of IPPWs”. Further, the “number of duodenal PWSs travelling over three channels (3 to <4.5 cm)” value is “decreased the number of waves that travelled over three channels compared with C10” in data set [2] (compared with C10); “no difference between C12 or C10 and control” in data set [2] (compared with control). Further, the “amplitude of antral pressures” value in data set [2] (compared with both C10 and control infusions, trend P=0.080) was “tended to be lower”. The “number of duodenal PWSs travelling over six channels (7.5 to <9 cm)” value in data set [2] (compared with control) is “decreased the number of waves that travelled over six channels compared with control”. The “number of duodenal PWSs travelling over two channels (1.5 to <3 cm)” value in data set [2] (compared with control) was “decreased the number of waves that travelled over two channels compared with control”. Also, in data set [2] (compared with control), the “number of waves that travelled over nine channels” value is “decreased the number of waves that travelled over nine channels”. Besides, in data set [2] (intraduodenal infusion 0.375 kcal/min), the “motor pattern on visual inspection of pressure traces” value is “antral and duodenal PWs were inhibited and pyloric pressures stimulated”.
